Experimental data as given in paper PMC7560154, “Novel Antimicrobial Peptide from Temporin L in The Treatment of Staphylococcus pseudintermedius and Malassezia pachydermatis in Polymicrobial Inter-Kingdom Infection” (Antibiotics, 2020).
Where a SMILES comes first, the peptide text is derived from it. [ ]: non-standard residue; d: D form.

Legend:
M. pachydermatis = experiment: Resistance acquisition test (serial subculture with sublethal peptide 8); format: cell-based, Malassezia pachydermatis
Description: To evaluate if the yeast acquired resistance to the drug, after a continued treatment, M. pachydermatis was subcultured with a sub lethal concentration of peptide 8 (1/2 MIC). Briefly, a final 3.12 μM peptide 8 concentration was added to yeast inoculum suspension equivalent to 1–3 × 10^6 CFU/mL in Sabouraud dextrose broth (SB) and incubated 72 h at 30 °C (inoculum 1). After this period, optical density was measured and a new yeast subculture with 3.12 μM of peptide 8 was prepared starting from inoculum 1 (inoculum 2). Three days after, optical density was again recorded and a new inoculum in presence of peptide 8 prepared. This was repeated until evident yeast death was observed.

[1] = tested on: methicillin-susceptible S. pseudintermedius (MSSP); experiment: Time-kill assay, MSSP; format: cell-based, Staphylococcus pseudintermedius
Description: (§1) Time kill assay was carried out as previously described. […] Plates were incubated at 37 °C on an orbital shaker at 120 rpm. Viability assessments were performed at 0, 2, 4, 6 and 24 h by plating 0.01 mL undiluted and 10-fold serially diluted samples onto Mueller–Hinton plates in triplicate. After overnight incubation at 37 °C, bacterial colonies were counted and compared with counts from control cultures.

MRSP = experiment: Time-kill assay, MRSP; format: cell-based, Staphylococcus pseudintermedius
Description: as §1

MRSP biofilm formation = experiment: Biofilm formation, crystal violet assay, MRSP; format: cell-based, Staphylococcus pseudintermedius; settings: sub-MIC 0.095 to 0.78 μM, 24 h
Description: Anti-biofilm activity of peptide 8 was examined by the crystal violet assay previously described with minor modifications. Microtiter plates were inoculated with bacteria at a final density of 10^6 CFU/mL and treated with peptide 8 ranging from 0.095 to 0.78 μM. Control cells were grown in the absence of peptide 8. After 24 h incubation at 37 °C, the supernatant was gently removed, and the wells were rinsed twice with PBS. The amount of biofilm formed in the wells was measured by crystal violet staining and the absorbance of the solution was measured at 595 nm.

MRSP mature biofilm [2] = experiment: Mature biofilm metabolic activity, XTT assay, MRSP; format: cell-based, Staphylococcus pseudintermedius; settings: 24 h
Description: The metabolic activity of MSSP and MRSP mature biofilms was quantified by the XTT [2,3-bis(2-methyloxy-4-nitro-5-sulfophenyl)-2H-tetrazolium-5-carboxanilide] (Roche Diagnostics, Germany) reduction assay. The assay was conducted as previously described with some modifications. XTT (150 µL) was added to biofilms in each well and the plates were incubated for 40 min at 37 °C in the dark. The reduction of the tetrazolium salt by cellular dehydrogenase into orange formazan dye was photometrically measured at 490 nm. The medium was set as negative control. Viability values for each well were compared to controls.

MRSP mature biofilm [3] = experiment: Confocal laser scanning microscopy of mature biofilm (LIVE/DEAD); format: cell-based, Staphylococcus pseudintermedius; settings: MRSP 1-day-old biofilm, 24 h; 12.5 μM in method, 32 μg/mL in Figure 4 legend
Description: CLSM was used to confirm the effect of peptide 8 on mature biofilm respect the controls. MSRP were grown in chambered cover glass (μ Slide 4 well; ibidi GmbH, Germany) in a static condition for 24 h. Peptide 8 was added on a 1-day-old biofilm at 12.5 μM. Bacterial suspensions incubated with medium alone were used as a positive control. After 24 h, biofilms were rinsed with PBS and stained by using a LIVE/DEAD® BacLight Bacteria Viability stains (Life Technologies, Italy). After the staining, the images were observed using a LSM 700 inverted confocal laser-scanning microscope (Zeiss, Italy). The areas were scanned using a 10X objective lens with the signal recorded in the green channel for Syto9 (excitation 488 nm, emission 500–525 nm) and in red channel for PI (excitation 500–550 nm, emission 610–650 nm).

mecA gene expression = mecA gene expression by RT-PCR; format: cell-based, Staphylococcus pseudintermedius
Description: The reaction was carried out in a DNA thermal cycler (MyCycler, Bio-Rad, Hercules, CA, USA). The PCR products were analysed by electrophoresis on 1.8% agarose gel in TBE and analysed on a Gel Doc EZ System (Bio-Rad, Hercules, CA, USA). RNA extraction was performed by using GenUp Total RNA kit (BiotechRabbit, Berlin, Germany) according to the manufacturer’s instructions. Five hundred nanograms of total cellular RNA were reverse-transcribed (RevertUP II Reverse Transcriptase, BiotechRabbit, Berlin, Germany) into cDNA using random hexamer primers (Random hexamer, Roche Diagnostics, Mannheim, Germany) at 48 °C for 60 min according to the manufacturer’s instructions. RT-PCR was carried out using 2 μL of cDNA, as reported above. Quantification data were normalized to the reference gene for 16S rRNA gene and analyzed by Image Lab software 5.2.1 (Bio-Rad, Hercules, CA, USA).

[4] = in vivo model of acute inflammation; cited from earlier work
[5] = ref unpublished results, cited from earlier work

CC[C@H](C)[C@H](NC(=O)[C@H](CCCNC(=N)N)NC(=O)[C@@H](CCCCN)NC(=O)[C@@H](CC(C)C)NC(=O)[C@H](Cc1ccccc1)NC(=O)[C@H](CCCCN)NC(=O)[C@H](CO)NC(=O)[C@H](Cc1ccccc1)NC(=O)[C@H](Cc1c[nH]c2ccccc12)NC(=O)[C@@H]1CCCN1C(=O)[C@@H](NC(=O)[C@@H](N)Cc1ccccc1)C(C)C)C(=O)N[C@@H](CC(C)C)C(N)=O [Peptide 8] (H-FVPWFSKF[dL][dK]RIL-NH2; N-terminus assumed)
Log10 CFU/Ml After 15 Generation Subcultures Including TL48 (M. pachydermatis; 3.12 μM (1/2 MIC), 15 subcultures (about 2 months), three independent experiments in triplicate): 2.10 ± 0.12 Log10 CFU/Ml
Log10 CFU/Ml After 1 Generation Subculture Including TL48 (M. pachydermatis; 3.12 μM (1/2 MIC), Sabouraud dextrose broth, 72 h at 30 °C per subculture, three independent experiments in triplicate): 5.80 ± 0.25 Log10 CFU/Ml
Acquisition of resistance after prolonged treatment (M. pachydermatis; 2 months of repeated sublethal concentration treatment): did not acquire resistance
Log10CFU/mL 0 h ([1]; peptide at MIC value, 37 °C, 0 h, three independent experiments in triplicate): 5.45 ± 0.25 Log10CFU/mL
Log10CFU/mL 1 h ([1]; peptide at MIC value, 1 h): 0.60 ± 0.12 Log10CFU/mL
Log10CFU/mL 2 h ([1]; peptide at MIC value, 2 h): 0.58 ± 0.32 Log10CFU/mL
Log10CFU/mL 4 h ([1]; peptide at MIC value, 4 h): 0.89 ± 0.15 Log10CFU/mL
Log10CFU/mL 6 h ([1]; peptide at MIC value, 6 h): 0.46 ± 0.15 Log10CFU/mL
Log10CFU/mL 24 h ([1]; peptide at MIC value, 24 h): 4.97 ± 0.30 Log10CFU/mL
Bactericidal or bacteriostatic activity ([1]; time-kill at MIC value): bacteriostatic
Log10CFU/mL 0 h (MRSP; peptide at MIC value (6.25 μM), 37 °C, 0 h, three independent experiments in triplicate): 5.30 ± 0.18 Log10CFU/mL
Log10CFU/mL 1 h (MRSP; peptide at MIC value (6.25 μM), 1 h): 2.47 ± 0.18 Log10CFU/mL
Log10CFU/mL 2 h (MRSP; peptide at MIC value (6.25 μM), 2 h): 2.38 ± 0.19 Log10CFU/mL
Log10CFU/mL 4 h (MRSP; peptide at MIC value (6.25 μM), 4 h): 1.30 ± 0.21 Log10CFU/mL
Log10CFU/mL 6 h (MRSP; peptide at MIC value (6.25 μM), 6 h): 0.77 ± 0.12 Log10CFU/mL
Log10CFU/mL 24 h (MRSP; peptide at MIC value (6.25 μM), 24 h): 4.86 ± 0.28 Log10CFU/mL
Bactericidal or bacteriostatic activity (MRSP; time-kill at MIC value): bacteriostatic
Effect on biofilm formation (MRSP biofilm formation): ineffective
Reduction of biofilm viability (MRSP mature biofilm [2]; 6.25 μM): 38%
Reduction of biofilm viability (MRSP mature biofilm [2]; 12.5 μM): 52%
Effect on biofilm viability at 25 μM (MRSP mature biofilm [2]; 25 μM): reduced effect
Effect on cells within mature biofilm (LIVE/DEAD staining) (MRSP mature biofilm [3]): killed or damaged
Regulation of mecA gene expression (mecA gene expression): did not regulate mecA gene expression
Anti-inflammatory activity [4]: potent anti-inflammatory activity
Aggregation state and conformation in aqueous solution ([5]; aqueous solution): monomeric with a random coil conformation
Aggregation in membrane mimetic environments ([5]; membrane mimetic environments): significant ability to aggregate
